Test system: NR4A1
Assay: Subcellular (cytosol/nucleus) distribution of NR4A1 with overexpressed ISG12
Assay type: cell-based, human
Settings: EGFP-tagged NR4A1 and myc-tagged ISG12 overexpressed; data not shown
Description: In order to quantify the effect of ISG12 on the cellular localization of NR4A1, the inventors analyzed the distribution of NR4A1 between the cytosol and the nucleus by separating sub-cellular fractions of 293 cells in which EGFP-tagged NR4A1 was overexpressed in the absence or presence of myc-tagged ISG12. In the presence of ISG12 20.8±7.4% (average±SD from 4 experiments; p<0.05) more NR4A1 was found in the cytosol as in the absence of ISG12. […] A representative example is given (n=3).
When the same experiments were performed with an EGFP-tagged NR4A1 construct (AA248-580) that cannot be exported from the nucleus^24 no influence of ISG12 on subcellular distribution of that construct was seen (FIG. 5). Similarly, the effect of ISG12 on full length NR4A1 was impaired in the presence of leptomycin B that inhibits nuclear export (data not shown).
Human embryonic kidney 293 cells were grown in 6-wells to sub-confluence and then transfected with EGFP-NR4A1 and mycISG12 together or separately. Cell fractionation was performed 30 hours after transfection, using MS buffer (210 mM mannitol, 70 mM sucrose, 5 mM Tris-HCl, pH 7.5 and 1 mM EDTA) containing 1% protease inhibitor cocktail. After homogenizing the cells with a 27 gauge needle 10 times, samples were spun at 1300×g for 10 minutes at 4° C. to pellet the nuclei. […]

With CCC(=C/[C@H](C)C/C=C/C(C)=C/[C@@H](C)C(=O)[C@@H](C)[C@H](O)[C@@H](C)C/C(C)=C/C(=O)O)/C=C/[C@@H]1OC(=O)C=C[C@@H]1C [leptomycin B] the “effect of ISG12 on full length NR4A1 (nuclear export / subcellular distribution) in the presence of the substance” value was “impaired”.
